Assay results from patent US12692238B2, “Substituted pyridazinone herbicides” (FMC CORPORATION, priority 2020, dated 2026).

How the values were obtained:
Assay type in all cases: in vivo
[1] = test system: oat, wild (wild oat, Avena fatua); assay: Test A postemergence, oat, wild; settings: 10 days
Procedure, shortened: (§1)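 Scores reflect visual injury versus untreated controls after 10 days in a greenhouse, on a scale from 0 (none) to 100 (complete control); pre- and postemergence sprays used loam/sand pots, postemergence at the one- to two-leaf stage.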

[2] = test system: horseweed (Erigeron canadensis); assay: Test A postemergence, horseweed; settings: 10 days
Procedure, shortened: as §1

[3] = test system: galium (catchweed bedstraw, Galium aparine); assay: Test A postemergence, galium; settings: Galium, post-emergence, 240 h, 10 days, read-out: Plant response rating, Galium
Procedure, shortened: as §1

soybean (Glycine max) [4] = assay: Test A postemergence, soybean; settings: 10 days
Procedure, shortened: as §1

[5] = test system: blackgrass (Alopecurus myosuroides); assay: Test A preemergence, blackgrass; settings: 0 to 100 scale, 10 days
Procedure, shortened: as §1

[6] = test system: goosegrass (Eleusine indica); assay: Test A postemergence, goosegrass; settings: 10 days
Procedure, shortened: as §1

soybean (Glycine max) [7] = assay: Test A preemergence, soybean; settings: 0 to 100 scale, 10 days
Procedure, shortened: as §1

[8] = test system: palmer amaranth (pigweed, palmer, Amaranthus palmeri); assay: Test A postemergence, palmer amaranth; settings: 10 days
Procedure, shortened: as §1

[9] = test system: barnyardgrass (Echinochloa crus-galli); assay: Test B flooded paddy test, barnyardgrass; settings: Echinochloa crus-galli; 250 g ai/ha, Flood; visually evaluated after 10 to 14 days; read-out: Plant response rating, Barnyardgrass (0 to 100 scale where 0 is no effect and 100 is complete control)
Procedure, shortened: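 Flooded paddy format: compound delivered into 3 cm of water over the soil at the 2-leaf stage. Greenhouse hold of 10 to 14 days. Scores run from 0 (no effect) to 100 (complete control), judged by eye relative to controls.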

[10] = test system: oat, wild (wild oat, Avena fatua); assay: Test A preemergence, oat, wild; settings: 0 to 100 scale, 10 days
Procedure, shortened: as §1

[11] = test system: wheat (Triticum aestivum); assay: Test A preemergence, wheat; settings: 125 g ai/ha, 0 to 100 scale, 10 days
[12] = test system: goosegrass (Eleusine indica); assay: Test A preemergence, goosegrass; settings: 0 to 100 scale, 10 days
Procedure, shortened: as §1

corn (Zea mays) [13] = assay: Test A preemergence, corn; settings: 0 to 100 scale, 10 days
Procedure, shortened: as §1

[14] = test system: palmer amaranth (pigweed, palmer, Amaranthus palmeri); assay: Test A preemergence, palmer amaranth; settings: 0 to 100 scale, 10 days
Procedure, shortened: as §1

corn (Zea mays) [15] = assay: Test A postemergence, corn; settings: Zea mays, post-emergence, 240 h, 10 days
Procedure, shortened: as §1

[16] = 31 g ai/ha, postemergence, 0 to 100 scale (0 no effect, 100 complete control)
[17] = Postemergence, 125 g ai/ha, 0 to 100 scale

## COC(=O)OCOc1c(C)nn(C)c(=O)c1-c1c2cc(C)ccc2cc2ccc(F)cc12 [Compound 15, [[5-(2-fluoro-7-methyl-9-anthracenyl)-1,6-dihydro-1,3-dimethyl-6-oxo-4-pyridazinyl]oxy]methyl methyl carbonate]
[1]; [16]
  Plant response rating, Oat, Wild: 20
[1]; [17]
  Plant response rating, Oat, Wild: 40
[2]; [16]
  Plant response rating, Horseweed: 100
[2]; [17]
  Plant response rating, Horseweed: 100
[3]; [16]
  pest or weed control at 31 g/ha: 100%
[3]; [17]
  pest or weed control at 125 g/ha: 100%
Soybean (Glycine max) [4]; [16]
  Plant response rating, Soybean: 80
Soybean (Glycine max) [4]; [17]
  Plant response rating, Soybean: 90
[5]; 31 g ai/ha
  Plant response rating, Blackgrass: 30
[5]; 125 g ai/ha
  Plant response rating, Blackgrass: 10
[6]; [16]
  Plant response rating, Goosegrass: 30
[6]; [17]
  Plant response rating, Goosegrass: 60
Soybean (Glycine max) [7]; 31 g ai/ha
  Plant response rating, Soybean: 0
Soybean (Glycine max) [7]; 125 g ai/ha
  Plant response rating, Soybean: 10
[8]; [16]
  Plant response rating, Pigweed, Palmer: 100
[8]; [17]
  Plant response rating, Pigweed, Palmer: 100
[9]
  pest or weed control at 250 g/ha: 50%
[10]; 31 g ai/ha
  Plant response rating, Oat, Wild: 20
[10]; 125 g ai/ha
  Plant response rating, Oat, Wild: 20
[11]
  Plant response rating, Wheat: 0
[12]; 31 g ai/ha
  Plant response rating, Goosegrass: 50
[12]; 125 g ai/ha
  Plant response rating, Goosegrass: 90
Corn (Zea mays) [13]; 31 g ai/ha
  Plant response rating, Corn: 0
Corn (Zea mays) [13]; 125 g ai/ha
  Plant response rating, Corn: 30
[14]; 31 g ai/ha
  Plant response rating, Pigweed, Palmer: 100
[14]; 125 g ai/ha
  Plant response rating, Pigweed, Palmer: 100
Corn (Zea mays) [15]; [16]
  Corn plant response rating (crop injury, 0 = no effect, 100 = complete kill) at 31 g/ha: 0%
Corn (Zea mays) [15]; [17]
  Corn plant response rating (crop injury, 0 = no effect, 100 = complete kill) at 125 g/ha: 50%
